EC50 data for 25 compounds are collected here from patent US8722704B2, “Modulators of ATP-binding cassette-transporters” (Vertex Pharmaceuticals Incorporated, priority 2007, dated 2014).

Where only a bound is given, the exact number is not on record here.

This assay deals with T1, ΔF508-CFTR (Homo sapiens, UniProt P13569, DEL508-508).
T1 construct: expressed in transfected cells
T1 sequence (P13569 with tags, fused parts or gaps DEL508-508): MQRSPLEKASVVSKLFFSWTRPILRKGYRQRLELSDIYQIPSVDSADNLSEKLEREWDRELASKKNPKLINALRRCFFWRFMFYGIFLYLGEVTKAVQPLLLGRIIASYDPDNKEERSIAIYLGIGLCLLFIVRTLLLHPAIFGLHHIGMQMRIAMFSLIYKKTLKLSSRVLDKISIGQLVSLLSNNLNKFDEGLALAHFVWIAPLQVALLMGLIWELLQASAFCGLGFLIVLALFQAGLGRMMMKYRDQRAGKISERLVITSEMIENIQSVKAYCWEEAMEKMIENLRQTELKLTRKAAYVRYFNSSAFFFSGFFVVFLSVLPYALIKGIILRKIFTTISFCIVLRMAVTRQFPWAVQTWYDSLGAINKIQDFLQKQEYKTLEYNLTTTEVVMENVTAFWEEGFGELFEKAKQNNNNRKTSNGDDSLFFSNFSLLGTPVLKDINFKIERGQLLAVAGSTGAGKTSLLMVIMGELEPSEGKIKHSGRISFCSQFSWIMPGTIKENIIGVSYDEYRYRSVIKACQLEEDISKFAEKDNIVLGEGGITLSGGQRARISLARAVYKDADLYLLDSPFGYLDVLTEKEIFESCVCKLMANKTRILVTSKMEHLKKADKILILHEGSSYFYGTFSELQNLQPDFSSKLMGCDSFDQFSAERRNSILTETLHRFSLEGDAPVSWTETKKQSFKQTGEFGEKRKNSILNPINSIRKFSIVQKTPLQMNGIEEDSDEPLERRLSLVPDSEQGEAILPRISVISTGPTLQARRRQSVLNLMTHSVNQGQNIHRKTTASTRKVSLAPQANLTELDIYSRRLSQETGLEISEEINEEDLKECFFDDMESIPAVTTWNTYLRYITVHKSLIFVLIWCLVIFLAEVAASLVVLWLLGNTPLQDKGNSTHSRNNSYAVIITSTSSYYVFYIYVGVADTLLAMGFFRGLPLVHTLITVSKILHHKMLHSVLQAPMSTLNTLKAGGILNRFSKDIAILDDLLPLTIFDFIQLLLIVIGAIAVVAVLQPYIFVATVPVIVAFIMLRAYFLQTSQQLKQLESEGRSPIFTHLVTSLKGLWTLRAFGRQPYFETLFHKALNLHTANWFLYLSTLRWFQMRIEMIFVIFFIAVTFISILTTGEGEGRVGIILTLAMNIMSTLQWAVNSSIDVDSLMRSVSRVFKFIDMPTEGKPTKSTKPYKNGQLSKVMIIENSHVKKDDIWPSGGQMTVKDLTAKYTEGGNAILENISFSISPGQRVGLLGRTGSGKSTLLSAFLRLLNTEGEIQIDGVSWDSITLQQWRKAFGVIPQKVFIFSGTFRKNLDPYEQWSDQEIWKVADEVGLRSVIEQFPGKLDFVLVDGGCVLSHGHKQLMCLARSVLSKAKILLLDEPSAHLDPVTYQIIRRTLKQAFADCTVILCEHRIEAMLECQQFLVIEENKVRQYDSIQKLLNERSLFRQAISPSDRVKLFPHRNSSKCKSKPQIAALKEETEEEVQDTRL
In words: Assays for detecting and measuring ΔF508-CFTR correction properties (membrane potential optical assay; Table 3 does not say which assay). It counts as cell-based. To be noted: IC50/EC50 bins; NIH3T3 mouse fibroblasts stably expressing ΔF508-CFTR; read-out: Binned EC50. From the text: The optical membrane potential assay utilized voltage-sensitive FRET sensors described by Gonzalez and Tsien (See Gonzalez, J. E. and R. Y. Tsien (1995) “Voltage sensing by fluorescence resonance energy transfer in single cells” Biophys J 69(4): 1272-80, and Gonzalez, J. E. and R. Y. Tsien (1997) “Improved indicators of cell membrane potential that use fluorescence resonance energy transfer” Chem Biol 4(4): 269-77) in combination with instrumentation for measuring fluorescence changes such as the Voltage/Ion Probe Reader (VIPR) (See Gonzalez, J. E., K. Oades, et al. (1999) “Cell-based assays and instrumentation for screening ion-channel targets” Drug Discov Today 4(9): 431-439).
These voltage sensitive assays are based on the change in fluorescence resonant energy transfer (FRET) between the membrane-soluble, voltage-sensitive dye, DiSBAC2(3), and a fluorescent phospholipid, CC2-DMPE, which is attached to the outer leaflet of the plasma membrane and acts as a FRET donor. Changes in membrane potential (Vm) cause the negatively charged DiSBAC2(3) to redistribute across the plasma membrane and the amount of energy transfer from CC2-DMPE changes accordingly. The changes in fluorescence emission were monitored using VIPR™ II, which is an integrated liquid handler and fluorescent detector designed to conduct cell-based screens in 96- or 384-well microtiter plates.
To identify small molecules that correct the trafficking defect associated with ΔF508-CFTR; a single-addition HTS assay format was developed. The cells were incubated in serum-free medium for 16 hrs at 37° C. in the presence or absence (negative control) of test compound. As a positive control, cells plated in 384-well plates were incubated for 16 hrs at 27° C. to “temperature-correct” ΔF508-CFTR. The cells were subsequently rinsed 3× with Krebs Ringers solution and loaded with the voltage-sensitive dyes. To activate ΔF508-CFTR, 10 μM forskolin and the CFTR potentiator, genistein (20 μM), were added along with Cl^−-free medium to each well. The addition of Cl^−-free medium promoted Cl^− efflux in response to ΔF508-CFTR activation and the resulting membrane depolarization was optically monitored using the FRET-based voltage-sensor dyes. […]
3. Solutions • Bath Solution #1: (in mM) NaCl 160, KCl 4.5, CaCl2 2, MgCl2 1, HEPES 10, pH 7.4 with NaOH. • Chloride-free bath solution: Chloride salts in Bath Solution #1 are substituted with gluconate salts. • CC2-DMPE: Prepared as a 10 mM stock solution in DMSO and stored at −20° C. • DiSBAC2(3): Prepared as a 10 mM stock in DMSO and stored at −20° C.
NIH3T3 mouse fibroblasts stably expressing ΔF508-CFTR are used for optical measurements of membrane potential. The cells are maintained at 37° C. in 5% CO2 and 90% humidity in Dulbecco's modified Eagle's medium supplemented with 2 mM glutamine, 10% fetal bovine serum, 1×NEAA, β-ME, 1×pen/strep, and 25 mM HEPES in 175 cm^2 culture flasks. For all optical assays, the cells were seeded at 30,000/well in 384-well matrigel-coated plates and cultured for 2 hrs at 37° C. before culturing at 27° C. for 24 hrs for the potentiator assay. For the correction assays, the cells are cultured at 27° C. or 37° C. with and without compounds for 16-24 hours.
In the case of `O=C(Nc1cc2ccccc2c(-c2ccc(CO)cc2)n1)C1(c2ccc3c(c2)OC(F)(F)O3)CC1` [Compound 27, 1-(2,2-Difluorobenzo[d][1,3]dioxol-5-yl)-N-(1-(4-(hydroxymethyl)phenyl)isoquinolin-3-yl)cyclopropanecarboxamide], the EC50 is at most 2000 nM.

In the case of `CC(=O)NCc1ccc(-c2nc(NC(=O)C3(c4ccc5c(c4)OC(F)(F)O5)CC3)cc3ccccc23)cc1` [Compound 3, N-(1-(4-(Acetamidomethyl)phenyl)isoquinolin-3-yl)-1-(2,2-difluorobenzo[d][1,3]dioxol-5-yl)cyclopropanecarboxamide], the EC50 was at most 2000 nM.

As for `COc1ccc(C2(C(=O)Nc3cc4ccccc4c(N4CCC(c5ccccc5)CC4)n3)CC2)cc1` [Compound 20, 1-(4-methoxyphenyl)-N-(1-(4-phenylpiperidin-1-yl)isoquinolin-3-yl)cyclopropanecarboxamide], the EC50 is at most 2000 nM.

Consider `CN(C)CCOC(=O)c1cccc(-c2nc(NC(=O)C3(c4ccc5c(c4)OC(F)(F)O5)CC3)cc3ccccc23)c1` [Compound 19, 2-(Dimethylamino)ethyl 3-(3-(1-(2,2-difluorobenzo[d][1,3]dioxol-5-yl)cyclopropanecarboxamido)isoquinolin-1-yl)benzoate], for which the EC50 is at most 2000 nM.

Take `NS(=O)(=O)c1cccc(-c2nc(NC(=O)C3(c4ccc5c(c4)OC(F)(F)O5)CC3)cc3ccccc23)c1` [Compound 13, 1-(2,2-Difluorobenzo[d][1,3]dioxol-5-yl)-N-(1-(3-sulfamoylphenyl)isoquinolin-3-yl)cyclopropanecarboxamide]: the EC50 was at most 2000 nM.

Regarding `COc1ccc(C2(C(=O)Nc3cc4ccccc4c(N4CCOCC4)n3)CC2)cc1` [Compound 18, 1-(4-methoxyphenyl)-N-(1-morpholinoisoquinolin-3-yl)cyclopropanecarboxamide], the EC50 is at most 2000 nM.

On to `O=C1NCc2ccc(-c3nc(NC(=O)C4(c5ccc6c(c5)OC(F)(F)O6)CC4)cc4ccccc34)cc21` [Compound 15, 1-(2,2-Difluorobenzo[d][1,3]dioxol-5-yl)-N-(1-(3-oxoisoindolin-5-yl)isoquinolin-3-yl)cyclopropanecarboxamide], for which the EC50 is at most 2000 nM.

`CNS(=O)(=O)c1ccc(-c2nc(NC(=O)C3(c4ccc5c(c4)OC(F)(F)O5)CC3)cc3ccccc23)c(C)c1` [Compound 26, 1-(2,2-difluorobenzo[d][1,3]dioxol-5-yl)-N-(1-(2-methyl-4-(N-methylsulfamoyl)phenyl)isoquinolin-3-yl)cyclopropanecarboxamide]: the EC50 was at most 2000 nM.

In the case of `O=C(O)c1cccc(-c2nc(NC(=O)C3(c4ccc5c(c4)OC(F)(F)O5)CC3)cc3ccccc23)c1` [Compound 8], the EC50 is at most 2000 nM.

As for `CS(=O)(=O)NCc1cccc(-c2nc(NC(=O)C3(c4ccc5c(c4)OC(F)(F)O5)CC3)cc3ccccc23)c1` [Compound 9, 1-(2,2-Difluorobenzo[d][1,3]dioxol-5-yl)-N-(1-(3-(methylsulfonamidomethyl)phenyl)isoquinolin-3-yl)cyclopropanecarboxamide], the EC50 is at most 2000 nM.

As for `COc1ccc(C2(C(=O)Nc3cc4ccccc4c(N4CCN(c5ccccc5)C(=O)C4)n3)CC2)cc1` [Compound 14, 1-(4-methoxyphenyl)-N-(1-(3-oxo-4-phenylpiperazin-1-yl)isoquinolin-3-yl)cyclopropanecarboxamide], the EC50 is at most 2000 nM.

Take `CN1CCN(C(=O)c2ccc(-c3nc(NC(=O)C4(c5ccc6c(c5)OC(F)(F)O6)CC4)cc4ccccc34)cc2)CC1` [Compound 24, 1-(2,2-difluorobenzo[d][1,3]dioxol-5-yl)-N-(1-(4-(4-methylpiperazine-1-carbonyl)phenyl)isoquinolin-3-yl)cyclopropanecarboxamide]: the EC50 is at most 2000 nM.

On to `O=C(Nc1cc2ccccc2c(-c2ccc3[nH]ncc3c2)n1)C1(c2ccc3c(c2)OC(F)(F)O3)CC1` [Compound 2, N-(1-(1H-Indazol-5-yl)isoquinolin-3-yl)-1-(2,2-difluorobenzo[d][1,3]dioxol-5-yl)cyclopropanecarboxamide], for which the EC50 is at most 2000 nM.

On to `NS(=O)(=O)c1ccc(-c2nc(NC(=O)C3(c4ccc5c(c4)OC(F)(F)O5)CC3)cc3ccccc23)cc1` [Compound 11, 1-(2,2-Difluorobenzo[d][1,3]dioxol-5-yl)-N-(1-(4-sulfamoylphenyl)isoquinolin-3-yl)cyclopropanecarboxamide], for which the EC50 is at most 2000 nM.

`O=C(O)c1ccc(-c2nc(NC(=O)C3(c4ccc5c(c4)OC(F)(F)O5)CC3)cc3ccccc23)cc1` [Compound 5]: the EC50 was at most 2000 nM.

In the case of `COc1ccc(-c2nc(NC(=O)C3(c4ccc5c(c4)OC(F)(F)O5)CC3)cc3ccccc23)cn1` [Compound 25, 1-(2,2-Difluorobenzo[d][1,3]dioxol-5-yl)-N-(1-(6-methoxypyridin-3-yl)isoquinolin-3-yl)cyclopropanecarboxamide], the EC50 is at most 2000 nM.

Turning to `COc1ccc(C2(C(=O)Nc3cc4ccccc4c(N4CCN(C)CC4)n3)CC2)cc1` [Compound 12], the EC50 was at most 2000 nM.

Regarding `COc1ccc(C2(C(=O)Nc3cc4ccccc4c(N4CCCCC4)n3)CC2)cc1` [Compound 23, 1-(4-methoxyphenyl)-N-(1-(piperidin-1-yl)isoquinolin-3-yl)cyclopropanecarboxamide], the EC50 was at most 2000 nM.

In the case of `NC(=O)c1ccc(-c2nc(NC(=O)C3(c4ccc5c(c4)OC(F)(F)O5)CC3)cc3ccccc23)cc1` [Compound 6, 4-(3-(1-(2,2-Difluorobenzo[d][1,3]dioxol-5-yl)cyclopropanecarboxamido)isoquinolin-1-yl)benzamide], the EC50 is at most 2000 nM.

For the compound `O=C(Nc1cc2ccccc2c(-c2ccc3[nH]ccc3c2)n1)C1(c2ccc3c(c2)OC(F)(F)O3)CC1` [Compound 16, N-(1-(1H-Indol-5-yl)isoquinolin-3-yl)-1-(2,2-difluorobenzo[d][1,3]dioxol-5-yl)cyclopropanecarboxamide], the EC50 was at most 2000 nM.

Turning to `O=C(Nc1cc2ccccc2c(-c2ccc(=O)[nH]c2)n1)C1(c2ccc3c(c2)OC(F)(F)O3)CC1` [Compound 17, 1-(2,2-Difluorobenzo[d][1,3]dioxol-5-yl)-N-(1-(6-oxo-1,6-dihydropyridin-3-yl)isoquinolin-3-yl)cyclopropanecarboxamide], the EC50 is at most 2000 nM.

`CC(=O)NCc1cccc(-c2nc(NC(=O)C3(c4ccc5c(c4)OC(F)(F)O5)CC3)cc3ccccc23)c1` [Compound 10, N-(1-(3-(Acetamidomethyl)phenyl)isoquinolin-3-yl)-1-(2,2-difluorobenzo[d][1,3]dioxol-5-yl)cyclopropanecarboxamide]: the EC50 was at most 2000 nM.

Regarding `NC(=O)c1cccc(-c2nc(NC(=O)C3(c4ccc5c(c4)OC(F)(F)O5)CC3)cc3ccccc23)c1` [Compound 22, 3-(3-(1-(2,2-Difluorobenzo[d][1,3]dioxol-5-yl)cyclopropanecarboxamido)isoquinolin-1-yl)benzamide], the EC50 was at most 2000 nM.

`O=C(Nc1cc2ccccc2c(-c2ccccc2)n1)C1(c2ccc3c(c2)OC(F)(F)O3)CC1` [Compound 4, 1-(2,2-difluorobenzo[d][1,3]dioxol-5-yl)-N-(1-phenylisoquinolin-3-yl)cyclopropanecarboxamide]: the EC50 was at most 2000 nM.

For `COc1ccc(C2(C(=O)Nc3cc4ccccc4c(N4CCNC(=O)C4)n3)CC2)cc1` [Compound 21], the EC50 is at most 2000 nM.

In general, EC50 refers to the concentration at which the effect is half-maximal.
